Where two headings read alike, the source gives them in different places.
Tests used:
[1] = test system: PSMA+PC3-PIP and PSMA-PC3-flu flank xenografts; experiment: Biodistribution of [125I/211At]2 and 3 with and without co-injection of DCIBzL (Example 6); assay type: in vivo, athymic mice; conditions: no co-injection
Description: Final compounds were purified by HPLC.

[2] = test system: PSMA + PC3-PIP and PSMA-PC3-flu flank xenografts; conditions: without cold blocking agent
Method: Final compounds were purified by HPLC. […] Organs were harvested 1, 4, and 24 h post-injection (n=5 per time point).

[3] = test system: PiP (tumor) and Flu (tumor); experiment: Biodistribution of [125I]VK-03-03 and [125I]VK-03-03-Lu in mice (Table 9); assay type: in vivo
[4] = test system: PSMA + PC3-PIP and PSMA-PC3-flu flank xenografts; experiment: Biodistribution of At-211 labeled PSMA inhibitors with and without cold blocking agent (Tables 6-8); assay type: in vivo, athymic mice; conditions: mice

## O=C(O)CC[C@H](NC(=O)N[C@@H](CCCCN(Cc1ccc([125I])cc1)C(=O)CCCCNC(=O)CN1CCN(CC(=O)O)CCN(CC(=O)O)CCN(CC(=O)O)CC1)C(=O)O)C(=O)O [[^125I]VK-02-90]
[1]; 1h
  retention of radioactivity, lacrimal glands (LG): 17.4±6.0 % ID/g
  retention of radioactivity, salivary glands (SG): 5.1±3.4 % ID/g
[1]; 4 h
  retention of radioactivity, kidneys (K): 162±36 % ID/g
[1]; 24 h
  retention of radioactivity, kidneys (K): 30.6±14.0 % ID/g
[2]; 1 H
  Biodistribution, Blood: 1.1 ± 0.3 % injected dose/g
  Biodistribution, Flu tumor: 1.4 ± 0.6 % injected dose/g
  Biodistribution, Kidneys: 194 ± 25 % injected dose/g
  Biodistribution, Lacrimal glands: 17.4 ± 6.0 % injected dose/g
  Biodistribution, Pip (tumor): 58 ± 14 % injected dose/g
  Biodistribution, Salivary glands: 5.1 ± 3.4 % injected dose/g
  Biodistribution, Spleen: 40.2 ± 16.4 % injected dose/g
  Biodistribution, Stomach: 1.1 ± 0.3 % injected dose/g
[2]; 4 H
  Biodistribution, Blood: 0.2 ± 0.03 % injected dose/g
  Biodistribution, Flu tumor: 0.3 ± 0.06 % injected dose/g
  Biodistribution, Kidneys: 162 ± 36 % injected dose/g
  Biodistribution, Lacrimal glands: 1.9 ± 0.45 % injected dose/g
  Biodistribution, Pip (tumor): 38 ± 13 % injected dose/g
  Biodistribution, Salivary glands: 0.7 ± 0.2 % injected dose/g
  Biodistribution, Spleen: 4.7 ± 1.2 % injected dose/g
  Biodistribution, Stomach: 0.4 ± 0.2 % injected dose/g
[2]; 24 H
  Biodistribution, Blood: 0.02 ± 0.01 % injected dose/g
  Biodistribution, Flu tumor: 0.04 ± 0.02 % injected dose/g
  Biodistribution, Kidneys: 30.6 ± 14.0 % injected dose/g
  Biodistribution, Lacrimal glands: 0.5 ± 0.2 % injected dose/g
  Biodistribution, Pip (tumor): 51 ± 7 % injected dose/g
  Biodistribution, Salivary glands: 0.3 ± 0.3 % injected dose/g
  Biodistribution, Spleen: 0.7 ± 0.4 % injected dose/g
  Biodistribution, Stomach: 0.05 ± 0.03 % injected dose/g

## O=C(O)CC[C@H](NC(=O)N[C@@H](CCCCN(Cc1ccc(Br)cc1)C(=O)CCCCNC(=O)c1cc([125I])cc(C(=O)NCCNC(=O)CN2CCN(CC(=O)O)CCN(CC(=O)O)CCN(CC(=O)O)CC2)c1)C(=O)O)C(=O)O [[^125I]VK-03-03]
[3]; 1 H
  Biodistribution Data, Flu (tumor): 2.0 ± 0.7
  Biodistribution Data, PiP (tumor): 44.7 ± 12.2
  Biodistribution Data, bladder: 5.0 ± 2.9
  Biodistribution Data, blood: 1.6 ± 0.26
  Biodistribution Data, fat: 3.2 ± 0.7
  Biodistribution Data, heart: 1.6 ± 0.5
  Biodistribution Data, kidney: 132 ± 18.5
  Biodistribution Data, lacrimal gland: 25.4 ± 4.1
  Biodistribution Data, large intestine: 1.2 ± 0.06
  Biodistribution Data, liver: 0.9 ± 0.15
  Biodistribution Data, lung: 4.5 ± 0.6
  Biodistribution Data, muscle: 1.0 ± 0.2
  Biodistribution Data, pancreas: 1.8 ± 0.27
  Biodistribution Data, salivary gland: 5.0 ± 0.86
  Biodistribution Data, small intestine: 0.76 ± 0.13
  Biodistribution Data, spleen: 70.0 ± 20.4
  Biodistribution Data, stomach: 1.0 ± 0.12
[3]; 4 H
  Biodistribution Data, Flu (tumor): 1.2 ± 0.28
  Biodistribution Data, PiP (tumor): 57.0 ± 15.9
  Biodistribution Data, bladder: 2.4 ± 0.5
  Biodistribution Data, blood: 0.49 ± 0.08
  Biodistribution Data, fat: 4.1 ± 1.5
  Biodistribution Data, heart: 0.9 ± 0.03
  Biodistribution Data, kidney: 165 ± 14.4
  Biodistribution Data, lacrimal gland: 15.8 ± 4.9
  Biodistribution Data, large intestine: 0.58 ± 0.19
  Biodistribution Data, liver: 0.4 ± 0.2
  Biodistribution Data, lung: 2.3 ± 0.3
  Biodistribution Data, muscle: 0.64 ± 0.22
  Biodistribution Data, pancreas: 1.5 ± 0.05
  Biodistribution Data, salivary gland: 3.5 ± 0.4
  Biodistribution Data, small intestine: 0.37 ± 0.08
  Biodistribution Data, spleen: 37.4 ± 8.9
  Biodistribution Data, stomach: 0.95 ± 0.7
[3]; 24 H
  Biodistribution Data, Flu (tumor): 0.2 ± 0.09
  Biodistribution Data, PiP (tumor): 54.1 ± 6.3
  Biodistribution Data, bladder: 1.6 ± 0.75
  Biodistribution Data, blood: 0.09 ± 0.02
  Biodistribution Data, fat: 0.37 ± 0.28
  Biodistribution Data, heart: 0.17 ± 0.08
  Biodistribution Data, kidney: 141 ± 18.3
  Biodistribution Data, lacrimal gland: 2.6 ± 0.76
  Biodistribution Data, large intestine: 0.11 ± 0.06
  Biodistribution Data, liver: 0.09 ± 0.02
  Biodistribution Data, lung: 0.58 ± 0.2
  Biodistribution Data, muscle: 0.1 ± 0.05
  Biodistribution Data, pancreas: 0.26 ± 0.07
  Biodistribution Data, salivary gland: 0.6 ± 0.16
  Biodistribution Data, small intestine: 0.08 ± 0.03
  Biodistribution Data, spleen: 4.9 ± 2.7
  Biodistribution Data, stomach: 0.18 ± 0.06
[3]; mouse, in vivo
  clearance of radioactivity in the kidneys: does not clear over time
  tumor uptake: high and prolonged tumor uptake

## O=C(O)CC[C@H](NC(=O)N[C@@H](CCCCN(Cc1ccc([211At])cc1)C(=O)CCCCNC(=O)CN1CCN(CC(=O)O)CCN(CC(=O)O)CCN(CC(=O)O)CC1)C(=O)O)C(=O)O [[^211At]VK-02-90]
[4]
  radioactivity in the stomach: very low
  stability in-vivo: stable in-vivo

— US11813340B2, “PSMA targeted radiohalogenated urea-polyaminocarboxylates for cancer radiotherapy” (The Johns Hopkins University, priority 2018, dated 2023)
